Test results from US20100324067A1, “TETRACYCLIC DIPYRANO-COUMARIN COMPOUNDS WITH ANTI-HIV AND ANTI-MYCOBACTERIUM TUBERCULOSIS ACTIVITIES” (priority 2007, published 2010).
Values after ≈ are worked out from the molar mass of the structure shown. Read-outs that look alike come from different tables or passages of the source.

Legend:
[1] = system: Mycobacterium tuberculosis H37Rv (ATCC 27294); assay: Microplate Alamar Blue Assay (MABA) in BACTEC 12B medium (TAACF screen); assay type: cell-based
host cells of the virus = assay: Cell toxicity to the host cells of the virus at 10 μM; assay type: cell-based
HIV-1 [2] = assay: Inhibitory activity against HIV-1 (literature method, Chen et al. J Virol 1997); conditions: for inhibition at 1 µM: Human immunodeficiency virus 1, read-out: Anti-HIV (%, 1.0 μM)
Protocol: Inhibitory activity of the coumarin derivatives of the present invention against HIV-1.
Inhibitory activity of the compounds against HIV-1 is assayed using the literature method. The experimental conditions, procedures, reagents and so on of the experiment are referred to the reference of “ZHIWEI CHEN, PEI ZHOU, DAVID D. HO, et al. Genetically divergent strains of simian immuno-deficiency virus use CCR5 as a coreceptor for entry. Journal of Virology, 1997, 71(4): 2705-2714”.

[3] = system: CEM-SS cells (human T-lymphoblastic cells); conditions: cited from earlier work
HIV-1 [4] = conditions: cited from earlier work
H37Rv strain = H37Rv strain growth; Bioorg. Med. Chem., 2004, 1199-1207; cited from earlier work
[5] = read-out: anti-TB active compound (MIC90 less than 10 μg/mL), classification

Row | Compound | IC50 [1] [µg/mL] | MIC90 ([1]; MABA, H37Rv, read-out: MIC90) [µg/mL] | Cell toxicity (10 μM) (host cells of the virus) | inhibition at 1 µM (HIV-1 [2]) [%] | melting point [°C] | also measured
1 | CCCc1cc(=O)oc2c3c(c4c(c12)OC(C)(C)C=C4)OC1CC1C3=O (stereo not drawn) [Example 70, 6,6,-dimethyl-4-propyl-10,11-cis-cyclopropyl-2H,6H,12H-benzo[1,2-b:3,4-b′:5,6-b″]tripyranyl-2,12-dione] | 3.31 (≈ 9.38 µM) | 5.54 (≈ 15.7 µM) | − | 68.6 | 113 to 115 | MIC90 [1, 5]: < 10 µg/mL; EC50 (HIV-1 [2]; Human immunodeficiency virus 1): 14.1 nM; anti-HIV-1 activity in vitro compared to (+)-calanolide A (HIV-1 [2]; in words): much higher inhibitory activity; therapeutic index, in words (HIV-1 [2]; in words): high therapeutic index; Therapeutic index (TI) = 50% cytotoxicity doses/50% effective dose (HIV-1 [2]; value in brackets after EC50): 709-2127
2 | CCCCc1cc(=O)oc2c3c(c4c(c12)OC(C)C=C4)OC(C)CC3=O (stereo not shown) [Example 82, 6,10-dimethyl-4-n-butyl-2H,6H,12H-benzo[1,2-b:3,4-b′:5,6-b″]-tripyranyl-2,12-dione] | 36.3 (≈ 102 µM) | 56.2 (≈ 158 µM) | − | 75.4 | 128 to 129 | 
3 | CC1CC(=O)c2c(c3c(c4c(CCC(F)(F)F)cc(=O)oc24)OC(c2ccccc2)C=C3)O1 (stereo not shown) [Example 74, 4-(3,3′, 3″-trifluoro-n-propyl)-6-phenyl-O-methyl-2H,6H, 2H-benzo[1,2-b:3,4-b′:5,6-b″]-tripyranyl-2,12-dione] | 5.7 (≈ 12.5 µM) | 6.38 (≈ 14 µM) | − | 47.6 | 171 to 173 | MIC90 [1, 5]: < 10 µg/mL
4 | CCCc1cc(=O)oc2c3c(c4c(c12)OC(C)(C)C=C4)O[C@H](C)[C@@H](C)[C@@H]3O [(+)-Calanolide A, (+)-calanolide A] |  |  |  | 86 |  | Cell toxicity (10 μM), number printed before the class symbol (host cells of the virus; 10 μM): 6%; CC50 [3]: 20 µM; therapeutic index (TI) (HIV-1 [4]; J. MED. CHEM. 1996, 39, 1303): 16-279; EC50 (HIV-1 [4]; anti-HIV-1, literature, read-out: EC50): 100 nM; EC50 (HIV-1 [4]; from J. Med. Chem. 1996, 39(6):1303-13, unit inferred, read-out: EC50 (TI)): 100 to 200 nM; activity against TIBO of pyridinone-resistant A17 strains (HIV-1 [4]; resistant strain A17): active; activity against AZT-1-resistant strains (G-9106) of HIV-1 (HIV-1 [4]; resistant strain G-9106): active; MIC90 (H37Rv strain): 3.13 µg/mL (≈ 8.45 µM)
5 | C/C=C/C1C=Cc2c3c(c4oc(=O)cc(CC)c4c2O1)C(=O)CC(C)O3 (stereo not shown) [Example 87, 4-ethyl-6-propenyl-10-methyl-2H,6H,12H-benzo[1,2-b:3,4-b′:5,6-b″]-tripyranyl-2,12-d ione] | 51.2 (≈ 145 µM) | > 100 | − | 56.4 | 153 to 155 | 
6 | C/C=C/C1C=Cc2c3c(c4oc(=O)c(F)c(CC)c4c2O1)C(=O)CC(C)O3 (stereo not shown) [Example 88, 4-ethyl-6-propenyl-3-fluoro-10-methyl-2H,6H,12H-benzo[1,2-b:3,4-b′:5,6-b″]-tripyranyl-2,12-dione] | 70.7 (≈ 191 µM) | > 100 | − | 46.2 | 158 to 161 | 
7 | C/C=C/C1C=Cc2c3c(c4oc(=O)cc(CCC)c4c2O1)C(=O)C(C)CO3 (stereo not shown) [Example 76, 4-n-propyl-6-propenyl-11-methyl-2H,6H,12H-benzo[1,2-b:3,4-b′:5,6-b″]-tripyranyl-2,12-dione] |  |  | − | 37.8 | 165 to 166 | 
8 | CCCc1c(Cl)c(=O)oc2c3c(c4c(c12)OCC(C)C4OCC)OC(C)CC3=O (stereo not shown) [Example 96, 8-ethoxyl-7,10-dimethyl-4-n-propyl-3-chloro-7,8,10,11-tetrahydro-6H-benzo[2,3-f;2′,3′-h]-tripyranyl-2,12-dione] | 11.1 (≈ 26.4 µM) | 22.2 (≈ 52.8 µM) | − | 51.7 | 187 to 189 | 
9 | CCc1cc(=O)oc2c3c(c4c(c12)OC(C)C=C4)OC(C)CC3=O (stereo not shown) [Example 79, 6,10-dimethyl-4-ethyl-2H,6H,12H-benzo[1,2-b:3,4-b′:5,6-b″]-tripyranyl-2,12-dione] | 6.07 (≈ 18.6 µM) | 6.84 (≈ 21 µM) | − | 57.4 | 133 to 134 | 
10 | C/C=C/C1C=Cc2c3c(c4oc(=O)c(Cl)c(CCC)c4c2O1)C(=O)CC(C)O3 (stereo not shown) [Example 86, 4-n-propyl-6-propenyl-3-chloro-10-methyl-2H,6H,12H-benzo[1,2-b:3,4-b′:5,6-b″]-tripyranyl-2,12-dione] |  |  | − | 57.3 | 142 to 144 | 
11 | CCCc1c(Cl)c(=O)oc2c3c(c4c(c12)OCC(C)=C4)OC(C)CC3=O (stereo not shown) [Example 91, 4-n-propyl-3-chloro-7,10-dimethyl-2H,6H,12H-benzo[1,2-b:3,4-b′:5,6-b″]-tripyranyl-2,12-dione] |  |  | − | 49.1 | 129 to 131 | 
12 | CCCc1cc(=O)oc2c3c(c4c(c12)OC(C)(C)C=C4)OC(C)CC3=O (stereo not shown) [Example 29, 6,6,10-trimethyl-4-n-propyl-2H,6H,12H-benzo[1,2-b:3,4-b′:5,6-b″]-tripyranyl-2,12-dione] |  |  | − |  | 112 to 115 | Anti-HIV (%, 1.0 μM) (HIV-1 [2]; compound at 1.0 μM): 73.1%
13 | CCCc1cc(=O)oc2c3c(c4c(c12)OC(C)(C)C=C4)OC(c1ccc(C)cc1)CC3=O (stereo not shown) [Example 17, 6,6-dimethyl-4-n-propyl-10-p-methyl-phenyl-2H,6H,12H-benzo[1,2-b:3,4-b′:5,6-b″]-tripyranyl-2,12-dione] |  |  | − | 57 | 174 to 176 | 
14 | CCCc1cc(=O)oc2c3c(c4c(c12)OC(CCC)C=C4)OC(C)CC3=O (stereo not shown) [Example 34, 10-methyl-4,6-di(-n-propyl)-2H,6H,12H-benzo[1,2-b:3,4-b′:5,6-b″]-tripyranyl-2,12-dione] | 2.88 (≈ 7.8 µM) | 3.18 (≈ 8.64 µM) | − | 54.1 | 158 to 160 | MIC90 [1, 5]: < 10 µg/mL
15 | CCCc1c(F)c(=O)oc2c3c(c4c(c12)OCC(C)=C4)OC(C)CC3=O (stereo not shown) [Example 92] |  |  | − | 47.1 | 122 to 124 | 
16 | COc1cc(-c2cc(=O)oc3c4c(c5c(c23)OC(C)(C)C=C5)OC(C)CC4=O)cc(OC)c1OC (stereo not shown) [Example 24, 6,6,10-trimethyl-4-(3,4,5-trimethoxyl)-phenyl-2H,6H,12H-benzo[1,2-b:3,4-b′:5,6-b″]-tripyranyl-2,12-dione] |  |  | − | 58 | 129 to 131 | 
17 | CCc1c(F)c(=O)oc2c3c(c4c(c12)OC(C)C=C4)OC(C)CC3=O (stereo not shown) [Example 83, 6,10-dimethyl-4-ethyl-3-fluoro-2H, H, 12H-benzo[1,2-b:3,4-b′: 5,6-b″]-tripyranyl-2,12-dione] | 24.4 (≈ 70.9 µM) | 27.7 (≈ 80.4 µM) | − | 39.5 | 141 to 142 | 
